Legend:
[1] = molecular target: beta1-adrenoceptor (Homo sapiens, UniProt P08588); assay: 3H-CGP12177 whole-cell binding, CHO cells expressing human beta1-adrenoceptor; set-up: expressed in transfected cells; host or cells: CHO cells; settings: 3H-CGP 12177 whole cell binding, mean ± s.e.mean; for Kd: log KD, read-out: Beta 1 Log KD (converted)
Source text: (§1) The selectivity of a ligand is given by the ratio of beta-1 to beta-2 KD.

[2] = molecular target: T1, human beta3-adrenoceptor (Homo sapiens, UniProt P13945); assay: 3H-CGP12177 whole-cell binding, CHO cells expressing human beta3-adrenoceptor; settings: 3H-CGP 12177 whole cell binding, mean ± s.e.mean; for Kd: log KD, read-out: Beta 3 Log KD (converted)
T1 construct: expressed in transfected cells; host or cells: CHO cells
T1 sequence (P13945 whole entry): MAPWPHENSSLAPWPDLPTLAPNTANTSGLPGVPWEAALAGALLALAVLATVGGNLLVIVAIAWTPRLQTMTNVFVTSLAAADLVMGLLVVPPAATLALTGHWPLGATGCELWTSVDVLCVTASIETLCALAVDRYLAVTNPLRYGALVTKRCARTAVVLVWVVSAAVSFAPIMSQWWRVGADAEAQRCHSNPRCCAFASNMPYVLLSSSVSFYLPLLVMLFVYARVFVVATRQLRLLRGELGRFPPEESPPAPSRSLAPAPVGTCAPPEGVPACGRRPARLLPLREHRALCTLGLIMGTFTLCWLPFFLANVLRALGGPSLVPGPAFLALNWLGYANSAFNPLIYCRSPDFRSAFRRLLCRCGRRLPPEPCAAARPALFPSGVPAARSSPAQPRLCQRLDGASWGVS

[3] = molecular target: T2, human beta2-adrenoceptor (Homo sapiens, UniProt P07550); assay: 3H-CGP12177 whole-cell binding, CHO cells expressing human beta2-adrenoceptor; settings: 3H-CGP 12177 whole cell binding, mean ± s.e.mean; for Kd: log KD, read-out: Beta 2 Log KD (converted)
T2 construct: expressed in transfected cells; host or cells: CHO cells
T2 sequence (P07550 whole entry): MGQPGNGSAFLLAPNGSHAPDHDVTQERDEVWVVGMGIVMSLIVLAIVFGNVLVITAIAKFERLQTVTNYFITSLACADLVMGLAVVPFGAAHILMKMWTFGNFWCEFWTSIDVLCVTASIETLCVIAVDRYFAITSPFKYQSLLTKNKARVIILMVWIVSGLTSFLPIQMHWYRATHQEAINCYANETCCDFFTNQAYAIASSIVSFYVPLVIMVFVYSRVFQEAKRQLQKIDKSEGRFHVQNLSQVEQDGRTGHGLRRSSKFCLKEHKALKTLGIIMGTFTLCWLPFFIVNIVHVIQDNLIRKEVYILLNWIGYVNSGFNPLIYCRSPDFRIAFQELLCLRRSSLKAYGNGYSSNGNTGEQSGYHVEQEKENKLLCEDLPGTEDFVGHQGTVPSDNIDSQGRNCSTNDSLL
Source text: as §1

Chain of beta1-adrenoceptor (P08588 whole entry): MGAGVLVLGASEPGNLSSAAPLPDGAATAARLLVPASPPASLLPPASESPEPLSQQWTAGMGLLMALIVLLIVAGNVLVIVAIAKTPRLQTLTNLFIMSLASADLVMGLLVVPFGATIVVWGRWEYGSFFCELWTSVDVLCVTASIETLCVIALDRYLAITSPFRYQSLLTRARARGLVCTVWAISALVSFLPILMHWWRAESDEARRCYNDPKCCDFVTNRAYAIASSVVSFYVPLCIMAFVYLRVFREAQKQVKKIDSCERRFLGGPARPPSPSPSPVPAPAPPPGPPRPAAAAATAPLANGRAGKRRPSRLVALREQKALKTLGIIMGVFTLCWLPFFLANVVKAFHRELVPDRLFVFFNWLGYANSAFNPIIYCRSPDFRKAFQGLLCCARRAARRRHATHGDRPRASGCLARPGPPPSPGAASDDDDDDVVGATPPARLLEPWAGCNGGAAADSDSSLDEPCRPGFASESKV

Row | Structure (SMILES) | Kd [1] [nM] | Kd [2] [nM] | Kd [3] [nM] | melting point [°C] | Beta 1 Log KD [1] | Beta 2 Log KD [3] | Beta 3 Log KD [2]
1 | O=C(Nc1ccccc1)OCCNCC(O)COc1ccc(OCCOC2CCCC2)cc1 (stereo not drawn) [compound 51, 2-(3-(4-(2-(Cyclopentyloxy)ethoxy)phenoxy)-2-hydroxypropylamino)ethyl phenylcarbamate] | 29.5 | 1050 | 468 |  |  |  | 
2 | O=C(Cc1ccc(O)cc1)NCCNCC(O)COc1ccc(OCCOCC2CC2)cc1 (stereo not drawn) [46i, N-(2-(3-(4-(2-(cyclopropylmethoxy)ethoxy)phenoxy)-2 hydroxypropylamino)ethyl)-2-(4-hydroxyphenyl)acetamide] | 17 | 3890 | 933 |  |  |  | 
3 | O=S(=O)(Cc1ccccc1)NCCNCC(O)COc1ccc(OCCOC2CCCC2)cc1 (stereo not drawn) [compound 53, N-(2-(3-(4-(2-(Cyclopentyloxy)ethoxy)phenoxy)-2-hydroxypropylamino)ethyl)-benzylsulfonamide] | 25.7 | 19100 | 933 |  |  |  | 
4 | O=C(NCCNCC(O)COc1ccc(OCCOC2CCCC2)cc1)Nc1ccc(O)c(F)c1 (stereo not drawn) [compound 54, 1-(2-(3-(4-(2-(Cyclopentyloxy)ethoxy)phenoxy)-2-hydroxypropylamino)ethyl)-3-(3-fluoro-4-hydroxyphenyl)urea Hydroformate] | 8.51 | 10200 | 2570 |  |  |  | 
5 | O=C(Cc1ccccc1)NCCNCC(O)COc1ccc(OCCOC2CCCC2)cc1 (stereo not drawn) [compound 49, N-(2-(3-(4-(2-(Cyclopentyloxy)ethoxy)phenoxy)-2-hydroxypropylamino)ethyl)-2-phenylacetamide Hydroformate] | 3.8 | 4370 | 53.7 |  |  |  | 
6 | CCOCCOc1ccc(OCC(O)CNCCNC(=O)Cc2cccc(O)c2)cc1 (stereo not drawn) [46h, N-(2-(3-(4-(2-ethoxyethoxy)phenoxy)-2-hydroxypropylamino)ethyl)-2-(3-hydroxyphenyl)acetamide] | 44.7 | 9330 | 257 |  |  |  | 
7 | OC(CNCCNC(=S)Nc1ccccc1)COc1ccc(OCCOC2CCCC2)cc1 (stereo not drawn) [compound 52, 1-(2-(3-(4-(2-(Cyclopentyloxy)ethoxy)phenoxy)-2-hydroxypropylamino)ethyl)-3-phenylthiourea] | 81.3 | 7080 | 692 |  |  |  | 
8 | O=C(NCCNCC(O)COc1ccc(OCCOCC2CC2)cc1)Nc1cccc(Cl)c1 (stereo not drawn) [46e, 1-(2-(3-(4-(2-(Cyclopropylmethoxy)ethoxy)phenoxy)-2-hydroxypropylamino)ethyl)-3-(3-chlorophenyl)urea hydroformate] | 29.5 | 8510 | 5750 |  |  |  | 
9 | N#Cc1cc(OCCOCC2CC2)ccc1OCC(O)CNCCNC(=O)Nc1ccc(O)cc1 (stereo not drawn) [LK204-545] |  |  |  |  |  | −5.20 ± 0.03 | −4.62 ± 0.09
10 | CCOCCOc1ccc(OCC(O)CNCCNC(=O)Nc2ccc(O)cc2)cc1 (stereo not drawn) [46d] | 83.2 |  | > 100000 | 96 to 98 |  |  | 
11 | O=C(NCCNCC(O)COc1ccc(OCCOCC2CC2)cc1)Nc1ccc(OCc2ccccc2)cc1 (stereo not drawn) [45a] | 70.8 | 1780 |  |  |  |  | 
12 | CCOCCOc1ccc(OCC(O)CNCCNC(=O)Nc2cccc(Cl)c2)cc1 (stereo not drawn) [46f, 1-(2-(3-(4-(2-Ethoxyethoxy)phenoxy)-2-hydroxypropylamino)ethyl)-3-(3-chlorophenyl)urea hydroformate] | 31.6 | 7240 | 6310 |  |  |  | 
13 | CCOCCOc1ccc(OCC(O)CNCCNC(=O)Cc2ccccc2O)cc1 (stereo not drawn) [46g, N-(2-(3-(4-(2-ethoxyethoxy)phenoxy)-2-hydroxypropylamino)ethyl)-2-(2-hydroxyphenyl)acetamide] | 77.6 | 10000 | 537 |  |  |  | 

Now from value to compound:

Row | Kd [1] [nM] | Kd [2] [nM] | Kd [3] [nM] | melting point [°C] | Beta 1 Log KD [1] | Beta 2 Log KD [3] | Beta 3 Log KD [2] | Structure (SMILES)
14 | 9.55 | 8910 | 1320 | 113 to 115 |  |  |  | O=C(NCCNCC(O)COc1ccc(OCCOC2CCCC2)cc1)Nc1ccc(F)c(F)c1 (stereo not drawn) [54a, 1-(2-(3-(4-(2-(Cyclopentyloxy)ethoxy)phenoxy)-2-hydroxypropylamino)ethyl)-3-(3,4-difluorophenyl)urea]
15 |  | 11500 |  | 96 to 98 | −7.77 ± 0.06 | −5.86 ± 0.06 |  | O=C(NCCNCC(O)COc1ccc(OCCOC2CCCC2)cc1)Nc1cccc(C(F)(F)F)c1 (stereo not drawn) [47r]
16 |  | 17400 |  | 114 to 115 | −7.33 ± 0.03 | −6.27 ± 0.02 |  | Cc1ccccc1NC(=O)NCCNCC(O)COc1ccc(OCCOC2CCCC2)cc1 (stereo not drawn) [47b]
17 | 32.4 | 4570 | 501 |  |  |  |  | O=C(NCCNCC(O)COc1ccc(OCCOC2CCCC2)cc1)c1ccccc1O (stereo not drawn) [54d]
18 | 1.74 | 513 | 162 |  |  |  |  | O=C(NCCNCC(O)COc1ccc(OCCOC2CCCC2)cc1)c1ccc(O)cc1 (stereo not drawn) [54f]
19 |  | 14800 |  |  | −7.11 ± 0.01 | −6.10 ± 0.03 |  | O=C(NCCNCC(O)COc1ccc(OCCOC2CCCC2)cc1)Nc1ccccc1Br (stereo not drawn) [47n]
20 | 27.5 | 2040 | 363 | 99 to 100 |  |  |  | O=C(NCCNCC(O)COc1ccc(OCCOC2CCCC2)cc1)c1ccc(F)cc1 (stereo not drawn) [54i]
21 | 6.92 | 8320 |  | 135 to 138 |  | −5.45 ± 0.10 |  | O=C(NCCNCC(O)COc1ccc(OCCOC2CCCC2)cc1)Nc1ccc(O)cc1 (stereo not drawn) [47v]
22 |  | 22900 |  | 142 to 144 | −7.76 ± 0.04 |  |  | Cc1ccc(NC(=O)NCCNCC(O)COc2ccc(OCCOC3CCCC3)cc2)cc1 (stereo not drawn) [47d]
23 |  | 20000 |  | 121 to 125 | −7.80 ± 0.04 | −5.86 ± 0.04 |  | COc1ccc(NC(=O)NCCNCC(O)COc2ccc(OCCOC3CCCC3)cc2)cc1 (stereo not drawn) [47g]
24 | 74.1 | 1120 | 550 | 85 to 86 |  |  |  | O=C(NCCNCC(O)COc1ccc(OCCOC2CCCC2)cc1)c1cccc(F)c1 (stereo not drawn) [54h]
25 |  | 21400 |  | 115 to 117 | −7.82 ± 0.03 | −5.94 ± 0.04 |  | O=C(NCCNCC(O)COc1ccc(OCCOC2CCCC2)cc1)Nc1ccccc1F (stereo not drawn) [47h]
26 |  | 3980 |  |  | −6.99 ± 0.08 |  |  | O=C(NCCNCC(O)COc1ccc(OCCOC2CCCC2)cc1)Nc1ccccc1O (stereo not drawn) [47t, 1-(2-(3-(4-(2-(Cyclopentyloxy)ethoxy)phenoxy)-2-hydroxypropylamino)ethyl)-3-(2-hydroxyphenyl)urea]
27 | 204 | 3090 | 1740 | 75 to 76 |  |  |  | O=C(NCCNCC(O)COc1ccc(OCCOC2CCCC2)cc1)c1ccccc1F (stereo not drawn) [54g]
28 | 3.72 | 2510 | 15.5 |  |  |  |  | O=C(Cc1cccc(O)c1)NCCNCC(O)COc1ccc(OCCOC2CCCC2)cc1 (stereo not drawn) [54j, N-(2-(3-(4-(2-(cyclopentyloxy)ethoxy)phenoxy)-2-hydroxypropylamino)ethyl)-2-(3-hydroxyphenyl)acetamide]
29 |  | 6920 |  |  | −7.89 ± 0.06 | −5.85 ± 0.06 |  | O=C(NCCNCC(O)COc1ccc(OCCOC2CCCC2)cc1)Nc1cccc(O)c1 (stereo not drawn) [47u, 1-(2-(3-(4-(2-(Cyclopentyloxy)ethoxy)phenoxy)-2-hydroxypropylamino)ethyl)-3-(3-hydroxyphenyl)urea]
30 |  | 18600 |  | 99 to 103 | −7.11 ± 0.03 |  |  | O=C(NCCNCC(O)COc1ccc(OCCOC2CCCC2)cc1)Nc1ccccc1Cl (stereo not drawn) [47k]
31 |  | 10200 |  | 120 to 122 | −7.92 ± 0.05 |  |  | O=C(NCCNCC(O)COc1ccc(OCCOC2CCCC2)cc1)Nc1cccc(Br)c1 (stereo not drawn) [47o]
32 | 69.2 |  | 1150 | 149 to 152 |  |  |  | O=C(NCCNCC(O)COc1ccc(OCCOC2CCCC2)cc1)c1ccccc1 (stereo not drawn) [62a]
33 | 5.37 |  | 251 | 127.5 to 130 |  |  |  | O=C(Cc1ccc(O)cc1)NCCNCC(O)COc1ccc(OCCOC2CCCC2)cc1 (stereo not drawn) [62v]
34 | 174 |  | 4470 | 105 to 107.5 |  |  |  | Nc1cccc(C(=O)NCCNCC(O)COc2ccc(OCCOC3CCCC3)cc2)c1 (stereo not drawn) [62c]
35 | 9.55 |  | 126 | 120.5 to 121.5 |  |  |  | O=C(Cc1ccccc1C(F)(F)F)NCCNCC(O)COc1ccc(OCCOC2CCCC2)cc1 (stereo not drawn) [62m]
36 |  | 17400 |  |  | −8.04 ± 0.04 | −6.06 ± 0.03 |  | Cc1cccc(NC(=O)NCCNCC(O)COc2ccc(OCCOC3CCCC3)cc2)c1 (stereo not drawn) [47c]
37 | 7.76 |  | 178 | 114.5 to 115.5 |  |  |  | O=C(Cc1ccc(F)cc1)NCCNCC(O)COc1ccc(OCCOC2CCCC2)cc1 (stereo not drawn) [62i]
38 | 10.7 |  | 53.7 | 110 to 113 |  |  |  | COc1cccc(CC(=O)NCCNCC(O)COc2ccc(OCCOC3CCCC3)cc2)c1 (stereo not drawn) [62s]
39 | 13.8 |  | 5500 | 67 to 69 |  |  |  | Nc1ccc(C(=O)NCCNCC(O)COc2ccc(OCCOC3CCCC3)cc2)cc1 (stereo not drawn) [62d]
40 | 13.2 |  | 200 | 111.5 to 112.5 |  |  |  | O=C(Cc1cccc(C(F)(F)F)c1)NCCNCC(O)COc1ccc(OCCOC2CCCC2)cc1 (stereo not drawn) [62n]
41 | 17.8 |  | 309 | 107 to 109 |  |  |  | Nc1ccccc1C(=O)NCCNCC(O)COc1ccc(OCCOC2CCCC2)cc1 (stereo not drawn) [62b]
42 | 30.9 | 1100 | 282 |  |  |  |  | O=C(NCCNCC(O)COc1ccc(OCCOC2CCCC2)cc1)c1cccc(O)c1 (stereo not drawn) [54e]
43 | 7.59 |  | 162 | 107 to 109 |  |  |  | O=C(Cc1ccc(Cl)cc1)NCCNCC(O)COc1ccc(OCCOC2CCCC2)cc1 (stereo not drawn) [62l]

From patent US20130261178A1, “PHENOXYPROPANOL DERIVATIVES AND THEIR USE IN TREATING CARDIAC AND CARDIOVASCULAR DISEASES” (priority 2010, published 2013)
